Test results taken from PMC10045663, “Synthesis, In Vitro Biological Evaluation of Antiproliferative and Neuroprotective Effects and In Silico Studies of Novel 16E-Arylidene-5α,6α-epoxyepiandrosterone Derivatives” (Biomedicines, 2023).

Key:
Format in all cases: cell-based
MCF-7 cells [1] = assay: Nuclear area analysis with ImageJ (Hoechst 33342-stained nuclei); settings: MCF-7, 1 and 10 µM, 48 h
Text: The nuclear measurements were achieved by converting 16-bit photomicrographs of Hoechst 33342-stained nuclei in different studied conditions into 8-bit images. Then, these imagens were autothresholded to binary photos using the default “Make binary” function of ImageJ (v. 1.49) software (NIH Image, Bethesda, MD, USA). Cell nuclei that are touching were separated and fragments were discarded based on area through “Analyze Particle” function. This function also provides several other information, such as nuclear area (NA), circumference, and form factor [26]. Furthermore, the “Nearest Neighbor Distance” (NND) was determined. This function allows measuring the distance between each cell nucleus and the nearest ones, providing information about cell distribution.

[2] = test system: MCF-7 cells (estrogen-responsive breast cancer cells); assay: MTT cell proliferation assay, MCF-7 cells; settings: 72 h
MCF-7 cells [3] = assay: Immunocytochemistry assay, Ki67 staining; settings: 48 h
Experimental: MCF-7 cells were trypsinized and counted by the trypan-blue exclusion assay, and then cells were seeded with an initial density of 3 × 10^4 cells/mL in 24-well culture plates (Nunc, Apogent, Denmark) containing circular coverslips of 10 mm diameter. Following seeding (48 h), cells were treated with 1 and 10 µM concentrations of 5-FU, as positive controls, and steroid 19 for 48 h. Untreated cells were used as a negative control. After this period, photograph shots were acquired at an optical microscope coupled with a digital camera (Supplementary Material, S2). Subsequently, the medium was removed, and cells were fixed with 10% formalin (15 min, room temperature). After fixation, cells were washed three times with PBS, permeabilized, and blocked for non-specific binding sites for 1 h with 0.5% Triton X-100 and 6% BSA at room temperature. Cells were incubated at 4 °C with 30 μL/coverslip of primary antibody, rabbit polyclonal anti-Ki67 (1:50, Abcam Plc.), prepared in 0.3% BSA and 0.1% Triton X-100, overnight. Then, cells were washed three times with PBS and incubated for 1 h, at room temperature, with 30 μL/coverslip of a solution containing the secondary antibody, Alexa Fluor 488 donkey anti-rabbit (1:200, Life Technologies), and the nuclear marker Hoechst-33342 (1:500, Life Technologies) prepared in PBS. Lastly, the coverslips were washed three times with PBS, mounted on a drop of the fluoroshield mounting medium (Abcam, Plc.) on a microscope slide, and left to dry for 24 h. Photomicrographs were taken using an Axio Imager A1 microscope (Carl Zeiss, Göttingen, Germany) with the 40 × objective.

[4] = test system: PC-3 cells (androgen-independent prostatic cancer); assay: MTT cell proliferation assay, PC-3 cells; settings: 72 h
[5] = test system: LNCaP cells (androgen-dependent prostatic cancer); assay: MTT cell proliferation assay, LNCaP cells; settings: 72 h

## (E)-16-(2,3-Dichlorobenzylidene)-3-hydroxy-5α ,6α -epoxy-10,13-dimethyl-1,3,4,7,8,9,10,11,12,13,15,16-dodecahydro-2H-cyclopenta[α ]phenanthren-17(14H)-one [Compound 19]
MCF-7 cells [1]
  nuclear area (NA) relative to the control: decreased significantly
[2]; MCF-7, 10 µM
  decrease in cell proliferation: around 75%
[2]; MCF-7, 50 µM
  cell proliferation relative to the control: ~0%
  decrease in cell proliferation: ~100%
[2]; MTT, tumoral cells, read-out: Estimated IC50, MCF-7
  IC50: 3.47 µM
MCF-7 cells [3]; MCF-7, 1 µM
  Ki67-positive cells relative to control: none of the compounds significantly affected
MCF-7 cells [3]; MCF-7, 10 µM
  Ki67-positive cells relative to control: statistically significant decrease
[4]; MTT, tumoral cells, read-out: Estimated IC50, PC-3
  IC50: 19 µM
[4]; PC-3, 50 µM
  decrease on cell proliferation relative to the control: higher than 75%
[5]; LNCaP, 10 µM
  effect on LNCaP cell proliferation: no relevant effects
[5]; LNCaP, 50 µM
  decrease in LNCaP cell proliferation: higher than 75%
[5]; MTT, tumoral cells, read-out: Estimated IC50, LNCaP
  IC50: 12.8 µM
